From US9210927B2, “Pesticidal compositions and processes related thereto” (Dow AgroSciences LLC, priority 2013, dated 2015)

Experiments:
Format in all cases: in vivo
GPA (Myzus persicae) = test: Bioassays on Green Peach Aphid (GPA), foliar spray on cabbage seedlings; conditions: 72 h, corrected % control (Abbott), 200 ppm spray on cabbage seedlings, three days, read-out: GPA Rating
Procedure: Bioassays on Green Peach Aphid (“GPA”) (Myzus persicae) Certain molecules disclosed in this document were tested against GPA using procedures described in the following example. In the reporting of the results, the “GPA Rating Table” was used (See Table Section). Cabbage seedlings grown in 3-inch pots, with 2-3 small (3-5 cm) true leaves, were used as test substrate. The seedlings were infested with 20-50 GPA (wingless adult and nymph stages) one day prior to chemical application. Four pots with individual seedlings were used for each treatment. Test compounds (2 mg) were dissolved in 2 mL of acetone/MeOH (1:1) solvent, forming stock solutions of 1000 ppm test compound. The stock solutions were diluted 5× with 0.025% Tween 20 in H2O to obtain the solution at 200 ppm test compound. A hand-held aspirator-type sprayer was used for spraying a solution to both sides of […] leaves until runoff. Reference plants (solvent check) were sprayed with the diluent only containing 20% by volume of acetone/MeOH (1:1) solvent. Treated plants were held in a holding room for three days at approximately 25° C. and ambient relative humidity (RH) prior to grading. Evaluation was conducted by counting the number of live aphids per plant under a microscope. Percent Control was measured by using Abbott's correction formula (W. S. Abbott, “A Method of Computing the Effectiveness of an Insecticide” J. Econ. Entomol. 18 (1925), pp. 265-267) as follows. Corrected % Control=100*(X−Y)/X • where • X=No. of live aphids on solvent check plants and • Y=No. of live aphids on treated plants The results are indicated in the table entitled “Table 3: Assay Results” (See Table Section).

CEW (Helicoverpa zea) = test: Bioassays on Corn Earworm (CEW), 128-well diet tray assay; conditions: Helicoverpa zea, 168 h; percent mortality, second instar larvae, 50 μg/cm^2 on artificial diet, five to seven days, 25° C.; read-out: CEW Rating
How it was run: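 Percent larval mortality, averaged across eight wells, read after five to seven days at 25 °C under 14:10 light-dark. Each well held one to five second-instar larvae on diet surface-dosed at 50 μg/cm^2 (compound applied in acetone-water 90:10, then dried).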

BAW (Spodoptera exigua) = test: Bioassays on Beet Armyworm (BAW), 128-well diet tray assay; conditions: Spodoptera exigua, 168 h, read-out: BAW Rating
How it was run: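 Diet surface dosed at 50 μg/cm^2 (acetone-water 90:10 vehicle), dried, then infested with second-instar larvae, one to five per well. After five to seven days at 25° C. under 14:10 light-dark, mortality per well was scored and averaged over eight wells.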

Compound: O=C(NCc1ccc(C(F)(F)F)nc1)c1ccc(/C=C/C(c2cc(Cl)c(Cl)c(Cl)c2)C(F)(F)F)cc1Br (stereo not drawn) [AC75]
- pest or weed control at 200 ppm (GPA (Myzus persicae)): 0 to 80%
- pest or weed control at 50 µg/cm2 (CEW (Helicoverpa zea)): 50 to 100%
- pest or weed control at 50 µg/cm2 (BAW (Spodoptera exigua)): 50 to 100%

Compound: Cc1cc(/C=C/C(c2cc(Cl)c(F)c(Cl)c2)C(F)(F)F)ccc1C(=O)NCc1cc(Cl)ccn1 (stereo not drawn) [AC77]
- pest or weed control at 200 ppm (GPA (Myzus persicae)): 0 to 80%
- pest or weed control at 50 µg/cm2 (CEW (Helicoverpa zea)): 50 to 100%
- pest or weed control at 50 µg/cm2 (BAW (Spodoptera exigua)): 50 to 100%

Compound: Cc1cc(/C=C/C(c2cc(Cl)c(Cl)c(Cl)c2)C(F)(F)F)ccc1C(=O)NCC(=O)NCC(F)(F)F (stereo not drawn) [AC78]
- pest or weed control at 200 ppm (GPA (Myzus persicae)): 80 to 100%
- pest or weed control at 50 µg/cm2 (CEW (Helicoverpa zea)): 50 to 100%
- pest or weed control at 50 µg/cm2 (BAW (Spodoptera exigua)): 50 to 100%

Compound: O=C(CNC(=O)c1ccc(/C=C/C(c2cc(Cl)c(F)c(Cl)c2)C(F)(F)F)cc1Br)NCC(F)(F)F (stereo not drawn) [AC79, (E)-2-Bromo-4-(3-(3,5-dichloro-4-fluorophenyl)-4,4,4-trifluorobut-1-en-1-yl)-N-(2-oxo-2-((2,2,2-trifluoroethyl)amino)ethyl)benzamide]
- pest or weed control at 200 ppm (GPA (Myzus persicae)): 80 to 100%
- pest or weed control at 50 µg/cm2 (CEW (Helicoverpa zea)): 50 to 100%
- pest or weed control at 50 µg/cm2 (BAW (Spodoptera exigua)): 50 to 100%

Compound: CCc1cc(/C=C/C(c2cc(Cl)c(F)c(Cl)c2)C(F)(F)F)ccc1C(=O)NCC(=O)NCC(F)(F)F (stereo not drawn) [AC80]
- pest or weed control at 200 ppm (GPA (Myzus persicae)): 0 to 80%
- pest or weed control at 50 µg/cm2 (CEW (Helicoverpa zea)): 50 to 100%
- pest or weed control at 50 µg/cm2 (BAW (Spodoptera exigua)): 50 to 100%

Compound: O=C(NC1CS(=O)(=O)C1)c1ccc(/C=C/C(c2cc(Cl)cc(Cl)c2)C(F)(F)F)cc1F (stereo not drawn) [AC83, (E)-4-(3-(3,5-Dichlorophenyl)-4,4,4-trifluorobut-1-en-1-yl)-N-(1,1-dioxidothietan-3-yl)-2-fluorobenzamide]
- pest or weed control at 200 ppm (GPA (Myzus persicae)): 0 to 80%
- pest or weed control at 50 µg/cm2 (CEW (Helicoverpa zea)): 50 to 100%
- pest or weed control at 50 µg/cm2 (BAW (Spodoptera exigua)): 50 to 100%

Compound: COc1cc(/C=C/C(c2cc(Cl)c(F)c(Cl)c2)C(F)(F)F)ccc1C(=O)NC1CS(=O)(=O)C1 (stereo not drawn) [AC85]
- pest or weed control at 200 ppm (GPA (Myzus persicae)): 0 to 80%
- pest or weed control at 50 µg/cm2 (CEW (Helicoverpa zea)): 50 to 100%
- pest or weed control at 50 µg/cm2 (BAW (Spodoptera exigua)): 50 to 100%

Compound: O=C(NC1C[S+]([O-])C1)c1ccc(/C=C/C(c2cc(Cl)c(F)c(Cl)c2)C(F)(F)F)cc1F (stereo not drawn) [AC87]
- pest or weed control at 200 ppm (GPA (Myzus persicae)): 0 to 80%
- pest or weed control at 50 µg/cm2 (CEW (Helicoverpa zea)): 50 to 100%
- pest or weed control at 50 µg/cm2 (BAW (Spodoptera exigua)): 50 to 100%

Compound: Cc1cc(/C=C/C(c2cc(Cl)cc(Cl)c2)C(F)(F)F)ccc1C(=O)NCc1nnc(C2CC2)o1 (stereo not drawn) [AC89, (E)-N-((5-Cyclopropyl-1,3,4-oxadiazol-2-yl)methyl)-4-(3-(3,5-dichlorophenyl)-4,4,4-trifluorobut-1-en-1-yl)-2-methylbenzamide]
- pest or weed control at 200 ppm (GPA (Myzus persicae)): 0 to 80%
- pest or weed control at 50 µg/cm2 (CEW (Helicoverpa zea)): 50 to 100%
- pest or weed control at 50 µg/cm2 (BAW (Spodoptera exigua)): 50 to 100%

Compound: O=C(NC1CCN(C(=O)CC(F)(F)F)CC1)c1ccc(/C=C/C(c2cc(Cl)c(Cl)c(Cl)c2)C(F)(F)F)cc1Br (stereo not drawn) [AC104, (E)-2-Bromo-4-(4,4,4-trifluoro-3-(3,4,5-trichlorophenyl)but-1-en-1-yl)-N-(1-(3,3,3-trifluoropropanoyl)piperidin-4-yl)benzamide]
- pest or weed control at 200 ppm (GPA (Myzus persicae)): 0 to 80%
- pest or weed control at 50 µg/cm2 (CEW (Helicoverpa zea)): 50 to 100%
- pest or weed control at 50 µg/cm2 (BAW (Spodoptera exigua)): 50 to 100%

Compound: CN1CCC(NC(=O)c2ccc(/C=C/C(c3cc(Cl)c(Cl)c(Cl)c3)C(F)(F)F)cc2Br)CC1 (stereo not drawn) [AC106, (E)-2-Bromo-N-(1-methylpiperidin-4-yl)-4-(4,4,4-trifluoro-3-(3,4,5-trichlorophenyl)but-1-en-1-yl)benzamide]
- pest or weed control at 200 ppm (GPA (Myzus persicae)): 0 to 80%
- pest or weed control at 50 µg/cm2 (CEW (Helicoverpa zea)): 50 to 100%
- pest or weed control at 50 µg/cm2 (BAW (Spodoptera exigua)): 50 to 100%

Compound: O=C(CC(F)(F)F)NC1CCCc2cc(/C=C/C(c3cc(Cl)c(Cl)c(Cl)c3)C(F)(F)F)ccc21 (stereo not drawn) [BC5]
- pest or weed control at 200 ppm (GPA (Myzus persicae)): 0 to 80%
- pest or weed control at 50 µg/cm2 (CEW (Helicoverpa zea)): 50 to 100%
- pest or weed control at 50 µg/cm2 (BAW (Spodoptera exigua)): 50 to 100%

Compound: O=C(CC(F)(F)F)NC1CCc2cc(/C=C/C(c3cc(Cl)c(F)c(Cl)c3)C(F)(F)F)ccc21 (stereo not drawn) [BC8]
- pest or weed control at 200 ppm (GPA (Myzus persicae)): 0 to 80%
- pest or weed control at 50 µg/cm2 (CEW (Helicoverpa zea)): 50 to 100%
- pest or weed control at 50 µg/cm2 (BAW (Spodoptera exigua)): 50 to 100%

Compound: Fc1c(Cl)cc(C(/C=C/c2ccc3c(c2)CCC3NCCC(F)(F)F)C(F)(F)F)cc1Cl (stereo not drawn) [BC10, (E)-5-(3-(3,5-Dichloro-4-fluorophenyl)-4,4,4-trifluorobut-1-en-1-yl)-N-(3,3,3-trifluoropropyl)-2,3-dihydro-1H-inden-1-amine]
- pest or weed control at 200 ppm (GPA (Myzus persicae)): 0 to 80%
- pest or weed control at 50 µg/cm2 (CEW (Helicoverpa zea)): 50 to 100%
- pest or weed control at 50 µg/cm2 (BAW (Spodoptera exigua)): 50 to 100%
